Assay results reported in US5059717A, “Method for purification of 2,2'-di(1,6,7-trihydroxy-3-methyl-5-isopropyl-8-naphthaldehyde)” (priority 1990, dated 1991).

test system: mice; experiment: Acute toxicity in oral administration to mice; assay type: in vivo
Description: The results of tests for an acute toxicity of the thus-obtained desired product when administered orally to mice are shown in the Table hereinbelow.
The results of tests of the thus-obtained desired product for an acute toxicity in oral administration to mice are shown in the Table hereinbelow.
Acute toxicity of 2,2'-di-(1,6,7-trihydroxy-3-methyl-
5-isopropyl-8-naphthaldehyde) in oral administration

Row | SMILES | LD50
1 | Cc1cc2c(C(C)C)c(O)c(O)c(C=O)c2c(O)c1-c1c(C)cc2c(C(C)C)c(O)c(O)c(C=O)c2c1O [Example 1, 2,2'-di-(1,6,7-trihydroxy-3-methyl-5-isopropyl-8-naphthaldehyde)] | 640 (450-768) mg/kg
2 | Cc1cc2c(C(C)C)c(O)c(O)c(C=O)c2c(O)c1-c1c(C)cc2c(C(C)C)c(O)c(O)c(C=O)c2c1O [Example 2, 2,2'-di-(1,6,7-trihydroxy-3-methyl-5-isopropyl-8-naphthaldehyde)] | over 1,500 mg/kg
3 | Cc1cc2c(C(C)C)c(O)c(O)c(C=O)c2c(O)c1-c1c(C)cc2c(C(C)C)c(O)c(O)c(C=O)c2c1O [Example 3, 2,2'-di-(1,6,7-trihydroxy-3-methyl-5-isopropyl-8-naphthaldehyde)] | 750 (646-870) mg/kg
4 | Cc1cc2c(C(C)C)c(O)c(O)c(C=O)c2c(O)c1-c1c(C)cc2c(C(C)C)c(O)c(O)c(C=O)c2c1O [known preparation, 2,2'-di-(1,6,7-trihydroxy-3-methyl-5-isopropyl-8-naphthaldehyde), reference compound] | 383 (340-426) mg/kg
